Test results reported in patent US7820202B2, “Extended release particle dispersion” (Laboratorios Farmaceuticos Rovi S.A., priority 2000, dated 2010).

Key:
[1] = cited from earlier work
[2] = Drug release from extended release particles in pH 7.4 phosphate buffer; format: physicochemical; conditions: pH 7.4 phosphate buffer (simulates body fluids); compared to the water-soluble salt, leuprolide acetate
Text: (§1) Like example 1. In addition, a water-insoluble salt of leuprolide, leuprolide oleate, was formed from aqueous leuprolide acetate and sodium oleate solutions. The insoluble salt was separated from the aqueous phase, dried and then added to the poly(d,l-lactide-co-glycolide) solution to form the first liquid preproduct, wherein the drug is dispersed and/or dissolved in the polymer solution. The first liquid preproduct is mixed with and dispersed in the second liquid preproduct.

[3] = Encapsulation efficiency of drug in PLGA extended release particles; format: physicochemical; conditions: poly(d,l-lactide-co-glycolide) particles formed by mixing two liquid preproducts (ethyl acetate polymer solution / aqueous phase)
Protocol: A solution of poly(d,l-lactide-co-glycolide) (75/25, RG752 or 50/50, RG 502H or 503H from Böhringer Ingelheim) (40% w/w) in ethyl acetate (syringe 1) (200μl) (first liquid preproduct) is mixed with an aqueous phase (water for injection, Tween 80- or alternatively Pluronic F 68-, Na carboxy methylcellulose) (syringe 2) (2ml) (second liquid preproduct) by connecting the two syringes with a connector or by screwing the two syringes together and by pushing the plungers forward and backward (25 mixing cycles). The extended release particles are thereby formed, which are dispersed in the aqueous phase and which are ready to be injected.
as §1

encapsulation efficiencies [3] [%] | Molecule | solubility in water [1] | retardation in drug release [2]
– | CCOC(C)=O [ethylacetate] | approx. 10% | –
– | CC(=O)OCC(COC(C)=O)OC(C)=O [triacetin] | approx. 8% | –
> 85 | leuprolide oleate | – | even more pronounced retardation in drug release
